The text below walks through data of patent US20260042747A1, “KIT INHIBITORS, COMPOUNDS, PHARMACEUTICAL COMPOSITIONS, AND METHODS OF USE THEREOF” (Alivexis, Inc., priority 2022, published 2026).

In experiment [1] the target is recombinant human KIT tyrosine kinase protein (Homo sapiens (Human), UniProt P10721). Briefly: KIT tyrosine kinase assay (ADP-Glo). The experiment is classed as biochemical.
The subject of a further experiment is M-07e cells. Briefly: SCF-dependent M-07e cell proliferation assay. The experiment is classed as cell-based, human. The settings on record: Homo sapiens, M-07e, 72 h, read-out: M-07e IC50. Here is the method:
SCF-dependent cell proliferation assay was developed to measure the inhibitory potency of the compounds in M-07e cells, which express wild-type human KIT protein. The assay was performed in 96-well plates and the IC50 of each KIT inhibitor was determined by CellTiter Glo Assay reagent and Victor X5 Multilabel Counter (Perkin Elmer).
M-07e cells were purchased from AcceGen Biotechnology. Cells were maintained with M-07e Growth medium: RPMI-1640 containing 20% FBS, 100 U/mL penicillin and 100 microgram/mL streptomycin, 10 ng/mL rhGM-CSF, 10 ng/mL rhSCF. M-07e cells were seeded at a density of 5000 cells/90 μL/well in 96-well plates. Test compounds were dissolved in 100% DMSO to make 20 mM stock solution and serially diluted 1:3 with 100% DMSO to make an 11-point dilution series with concen-trations from […] to 0.024 μM. The serially diluted compounds were then each diluted 1:50 with culture medium to obtain assay compound solutions containing 2% DMSO. Ten μL of assay compound solutions were added to the 90 μL of culture cell suspension in the 96-well plate, with a final DMSO concentration of 0.2%. The plates were then incubated in a 5% CO2 incubator at 37° C. for 3 days. To obtain Day Zero Controls for background calculation, cells were seeded at 5000 cells/100 μL in a new 96-well plate and processed on the same day. Both Day Zero controls and 3 day culture plates were then treated as follows. 100 μL of CellTiter Glo Assay reagent was added to each well and the plate was incubated at room temperature for 15 min on a shaker at 200-300 RPM. Then 100 μL of cell lysate samples were transferred to white wall 96-well plates and luminescence was measured by a plate reader. The luminescence of Day Zero Control was subtracted from the luminescence intensity of 3 day culture readings. The assay control for this experiment was cells treated with 0.2% DMSO in culture medium and wells with 100 μL of culture medium (0.2% DMSO without cells) were used as the blank for data analysis.
The IC50 value of each compound was determined by using % inhibition by nor-malizing inhibition in DMSO treated control wells to 0% using the following formula method: […]
Plot percent inhibition in proliferation of triplicates against the respective concen-trations of compound and fit the dose response curve using the sigmoidal dose response equation to generate the IC50 in GraphPad Prism 8 software.

The mark [2] stands for this setting: SCF-dependent M-07e cell proliferation, 3 days, CellTiter Glo.

Structures can show the parent of a compound that is named as a salt. Where two headings read alike, the source gives them in different places.

Chain of recombinant human KIT tyrosine kinase protein (P10721 546-976): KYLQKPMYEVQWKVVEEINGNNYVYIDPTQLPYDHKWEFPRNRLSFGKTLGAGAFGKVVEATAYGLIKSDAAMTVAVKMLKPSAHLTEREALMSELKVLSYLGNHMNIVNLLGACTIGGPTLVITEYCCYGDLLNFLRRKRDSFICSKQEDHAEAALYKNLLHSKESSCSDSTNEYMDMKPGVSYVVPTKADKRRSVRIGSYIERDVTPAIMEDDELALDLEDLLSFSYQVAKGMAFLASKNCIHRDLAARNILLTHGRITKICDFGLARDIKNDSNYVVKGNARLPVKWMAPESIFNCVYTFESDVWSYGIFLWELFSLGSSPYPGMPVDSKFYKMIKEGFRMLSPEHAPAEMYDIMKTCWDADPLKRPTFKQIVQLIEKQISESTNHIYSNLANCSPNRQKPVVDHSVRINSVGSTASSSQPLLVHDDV

What is called IC50 is the concentration needed to halve the response being measured. Consider `CC(c1ccccc1)N(C)c1ccc(CNC(=O)c2ccc3c(c2)[nH]c(=O)n3C)cn1` (stereo not drawn) [Example 82], for which the figures for the IC50 (in experiment [1] (Table 98); in the experiment on M-07e cells (setting [2])) were 75 nM and 730 nM, respectively.
Turning to `CC(C1CC1)N(C)c1ccc(CNC(=O)c2ccc3c(c2)[nH]c(=O)n3C)cn1` (stereo not drawn) [Example 83], the IC50 in experiment [1] (Table 98) amounted to 41 nM; in the experiment with M-07e cells, 300 nM.
`CCC(C)N(C)c1ccc(CNC(=O)c2ccc3c(c2)[nH]c(=O)n3C)cn1` (stereo not drawn) [Example 84]: the IC50 in experiment [1] (Table 98) amounted to 16 nM; with M-07e cells it was 180 nM.
Turning to `CC(N(C)c1ccc(CNC(=O)c2ccc3c(c2)[nH]c(=O)n3C)cn1)C(F)(F)F` (stereo not drawn) [Example 86], the IC50 is 15 nM in experiment [1] (Table 98) and 120 nM in the experiment on M-07e cells.
Turning to `CN(c1ncc(CNC(=O)c2ccc3c(c2)[nH]c(=O)n3C)s1)C1CCC(F)(F)CC1` [Example 90], the figures for the IC50 (in experiment [1] (Table 98); with M-07e cells) were 48 nM and 1800 nM, respectively.
Consider `CN(CC1CCC(F)(F)CC1)c1ncc(CNC(=O)c2ccc3c(c2)[nH]c(=O)n3C)s1` [Example 92], for which the IC50 is 59 nM in experiment [1] (Table 98) and 1900 nM with M-07e cells.
As for `Cn1c(=O)[nH]c2cc(C(=O)NCc3cnc(N(C)[C@H]4C[C@@H](C(F)(F)F)C4)cn3)ccc21` [Example 95], the half-maximal inhibitory concentration (IC50) in experiment [1] (Table 98) was determined as 24 nM; with M-07e cells, 190 nM.
Turning to `Cn1c(=O)[nH]c2cc(C(=O)NCc3ccc(N4CCCC4(C)C)nc3)ccc21` [Example 97], the values for the IC50 (in experiment [1] (Table 98); in the experiment on M-07e cells) were 34 nM and 240 nM, respectively.
For `C[C@H]1CCCN1c1cnc(CNC(=O)c2ccc3c(c2)[nH]c(=O)n3C)cn1` [Example 98], in that order: 71 nM and 990 nM.
For `C[C@@H]1CCCN1c1ccc(CNC(=O)c2ccc3c(c2)[nH]c(=O)n3C)cn1` [Example 99], in that order: 50 nM and 540 nM.
The corresponding values for `Cn1c(=O)[nH]c2cc(C(=O)NCc3cnc4c(ccn4-c4ccccc4F)c3)ccc21` [Example 100] are 53 nM and 250 nM.
Regarding `Cn1c(=O)[nH]c2cc(C(=O)NCc3cnc4c(c3)CCN4c3c(F)cccc3F)ccc21` [Example 102], the IC50 in experiment [1] (Table 99) came out at 55 nM; with M-07e cells, 270 nM.
For `CN(c1ccc(CNC(=O)c2ccc3c(c2)[nH]c(=O)n3C)cn1)C1CCCC(O)C1` (stereo not drawn) [Example 104, N-((6-((3-Hydroxycyclohexyl)(methyl)amino)pyridin-3-yl)methyl)-1-methyl-2-oxo-2,3-d ihydro-1H-benzimidazole-5-carboxamide], the figures for the IC50 (in experiment [1] (Table 99); with M-07e cells (setting [2])) were 51 nM and 7660 nM, respectively.
For `CN(c1ccc(CNC(=O)c2ccc3c(c2)[nH]c(=O)n3C)cn1)[C@H]1CCC(F)(F)C1` [Example 105, (S)—N-((6-((3,3-Difluorocyclopentyl)(methyl)amino)pyridin-3-yl)methyl)-1-methyl-2-o xo-2,3-dihydro-1H-benzimidazole-5-carboxamide], the 50% inhibitory concentration (IC50) in experiment [1] (Table 99) was found to be 21 nM; in the experiment on M-07e cells (setting [2]), 13 nM.
In the case of `CN(c1ccc(CNC(=O)c2ccc3c(c2)[nH]c(=O)n3C)cn1)C1CC2C(C1)C2(F)F` (stereo not drawn) [Example 108, N-((6-((6,6-Difluorobicyclo[3.1.0]hexan-3-yl)(methyl)amino)pyridin-3-yl)methyl)-1-met hyl-2-oxo-2,3-dihydro-1H-benzimidazole-5-carboxamide], the figures for the 50% inhibitory concentration (IC50) (in experiment [1] (Table 99); in the experiment with M-07e cells (setting [2])) were 22 nM and 65 nM, respectively.
As to `CN(c1ccc(CNC(=O)c2ccc3c(c2)[nH]c(=O)n3C)cn1)C1CC2(CC2)C1` [Example 109, 1-Methyl-N-((6-(methyl(spiro[2.3]hexan-5-yl)amino)pyridin-3-yl)methyl)-2-oxo-2,3-d ihydro-1H-benzimidazole-5-carboxamide formate], the IC50 in experiment [1] (Table 99) turned out to be 25 nM; in the experiment with M-07e cells (setting [2]), 12 nM.
As to `CN(c1ccc(CNC(=O)c2ccc3c(c2)[nH]c(=O)n3C)cn1)[C@H]1CC[C@@H](F)C1` [Example 110, N-((6-(((1S,3R)-3-Fluorocyclopentyl)(methyl)amino)pyridin-3-yl)methyl)-1-methyl-2-ox o-2,3-dihydro-1H-benzimidazole-5-carboxamide], the IC50 amounted to 33 nM in experiment [1] (Table 99) and 55 nM in the experiment on M-07e cells (setting [2]).
The corresponding values for `CN(c1ccc(CNC(=O)c2cc3[nH]c(=O)n(C)c3cc2F)cn1)C1CCC(F)(F)CC1` [Example 115, N-((6-((4,4-Difluorocyclohexyl)(methyl)amino)pyridin-3-yl)methyl)-6-fluoro-1-methyl-2-oxo-2,3-dihydro-1H-benzimidazole-5-carboxamide] are 21 nM and 70 nM.
On to `CN(c1ccc2c(c1)COC2)c1ccc(CNC(=O)c2ccc3c(c2)[nH]c(=O)n3C)cn1` [Example 119], for which the IC50 stood at 40 nM in experiment [1] (Table 99) and 423 nM in the experiment on M-07e cells.
In the case of `CN(c1ccc(CNC(=O)c2ccc3c(c2)[nH]c(=O)n3C)cn1)C1Cc2ccccc2C1` [Example 120], the IC50 came out at 45 nM in experiment [1] (Table 99) and 206 nM in the experiment on M-07e cells.
`CN(c1ccc(CNC(=O)c2ccc3c(c2)[nH]c(=O)n3C)cn1)C1CC2(COC2)C1` [Example 121]: the IC50 in experiment [1] (Table 99) amounted to 59 nM; in the experiment with M-07e cells it was 1350 nM.
With `CN(c1ccc(CNC(=O)c2ccc3c(c2)[nH]c(=O)n3C)cn1)[C@@H]1CCC(F)(F)C1` [Example 122], the IC50 in experiment [1] (Table 99) was 32 nM; in the experiment on M-07e cells it was 14 nM.
As to `CN(c1ccc(CNC(=O)c2ccc3c(c2)[nH]c(=O)n3C)cn1)C1CC2(C1)CC2(F)F` (stereo not drawn) [Example 125], the results for the IC50 (in experiment [1] (Table 99); in the experiment on M-07e cells) were 31 nM and 151 nM, respectively.
Turning to `CN(c1ccc(CNC(=O)c2ccc3c(c2)[nH]c(=O)n3C)cn1)C1[C@H]2CC(F)(F)C[C@@H]12` (stereo partly drawn) [Example 126], the IC50 was found to be 33 nM in experiment [1] (Table 99) and 806 nM in the experiment with M-07e cells.
As to `CN(c1ccc(CNC(=O)c2ccc3c(c2)[nH]c(=O)n3C)cn1)[C@H]1C[C@@H]1C(F)(F)F` [Example 127], the figures for the IC50 (in experiment [1] (Table 99); with M-07e cells) were 47 nM and 1320 nM, respectively.
As to `CC(C)N(C)c1ccc(CNC(=O)c2ccc3[nH]c(=O)[nH]c3c2)cn1` [Example 129], the IC50 in experiment [1] (Table 99) turned out to be 20 nM; with M-07e cells (setting [2]) it was 1020 nM.
The corresponding values for `CC(NC(=O)c1ccc2c(c1)[nH]c(=O)n2C)c1ccc(N(C)C(C)C)nc1` (stereo not drawn) [Example 130] are 222 nM and 1860 nM.
In the case of `CN(c1ccc(CNC(=O)c2ccc3c(c2)[nH]c(=O)n3C)cn1)[C@@H]1CC[C@H](F)C1` [Example 134], the IC50 in experiment [1] (Table 99) stood at 38 nM; in the experiment on M-07e cells it was 62 nM.
In the case of `CN(c1ccc(CNC(=O)c2cc3[nH]c(=O)[nH]c3cc2F)cn1)C1CCC(F)(F)CC1` [Example 135], the IC50 in experiment [1] (Table 99) came to 30 nM; with M-07e cells (setting [2]), 589 nM.
The corresponding values for `CC(C)N(C)c1ccc(CNC(=O)c2cc3[nH]c(=O)[nH]c3cc2F)cn1` [Example 136] are 27 nM and 209 nM.
The corresponding values for `CN(c1ccc(CNC(=O)c2cc3[nH]c(=O)[nH]c3cc2F)cn1)[C@H]1C[C@@H](C(F)(F)F)C1` [Example 137] are 23 nM and 36 nM.
Turning to `CN(c1cnc(CNC(=O)c2cc3[nH]c(=O)[nH]c3cc2F)cn1)C1CCC(F)(F)C1` (stereo not drawn) [Example 138], the results for the IC50 (in experiment [1] (Table 99); with M-07e cells) were 35 nM and 4570 nM, respectively.
Consider `CN(c1ccc(CNC(=O)c2cc3[nH]c(=O)n(C)c3cc2F)cn1)C1CC(F)(F)C1` [Example 139], for which the IC50 in experiment [1] (Table 99) was 75 nM; in the experiment with M-07e cells (setting [2]), 636 nM.
The corresponding values for `CN(c1ccc(CNC(=O)c2cc3[nH]c(=O)[nH]c3cc2F)cn1)C1CCC(F)(F)C1` (stereo not drawn) [Example 140] are 18 nM and 99 nM.
Turning to `CN(c1ccc(CNC(=O)c2cc(F)c3[nH]c(=O)[nH]c3c2)cn1)[C@H]1C[C@@H](C(F)(F)F)C1` [Example 142], the IC50 in experiment [1] (Table 99) was found to be 18 nM; with M-07e cells, 278 nM.
As for `CN(c1ccc(CNC(=O)c2cc(F)c3[nH]c(=O)[nH]c3c2)cn1)C1CCC(F)(F)CC1` [Example 143], the half-maximal inhibitory concentration (IC50) stood at 35 nM in experiment [1] (Table 99) and 1460 nM in the experiment with M-07e cells (setting [2]).
For `CN(c1ccc(CNC(=O)c2cc(F)c3[nH]c(=O)[nH]c3c2)cn1)C1CC(F)(F)C1` [Example 144], in that order: 57 nM and 3560 nM.
As for `COc1cc(C(=O)NCc2ccc(N(C)[C@H]3C[C@@H](C(F)(F)F)C3)nc2)cc2[nH]c(=O)[nH]c12` [Example 145], the results for the concentration for half-maximal inhibition (IC50) (in experiment [1] (Table 99); in the experiment on M-07e cells) were 15 nM and 515 nM, respectively.
On to `CN(c1ccc(CNC(=O)c2cc3[nH]c(=O)[nH]c3c(F)c2F)cn1)C1CCC(F)(F)C1` (stereo not drawn) [Example 146], for which the 50% inhibitory concentration (IC50) was found to be 30 nM in experiment [1] (Table 99) and 621 nM in the experiment on M-07e cells (setting [2]).
